From patent publication US20250101017A1, “SALT CRYSTAL FORM AND FREE BASE CRYSTAL FORM OF KINASE INHIBITOR” (CYTOSINLAB THERAPEUTICS CO., LTD., priority 2022, published 2025)

Tests used:
Format in all cases: physicochemical
[1] = Solubility at 37° C. in buffer solutions with different pH (about 10 mg in 1 ml, 2 h and 24 h); filtrate concentration and pH, XRPD of remaining solid; conditions: for Crystal form: remaining solid, XRPD
Method: Approximately 10 mg of malate crystal form VII-A and free base Form A were weighed separately, and 1 ml of buffer solutions with different pH were added to make the solution supersaturated, and the mixtures were stirred at 37° C. for 2 h and 24 hours. The samples were filtered, and the filtrates were measured to determine the concentration and pH value, and the remaining solid was subjected to XRPD determination. The specific results were as follows: […]

[2] = Dynamic moisture adsorption (DVS), hygroscopicity; conditions: DVS; for moisture absorption weight gain: 80% RH humidity
Method: DSV pattern determination method: Dynamic moisture adsorption was performed using Intrinsic DVS. In step mode, the sample is subjected to loop testing at a relative humidity of 0-90%. The sample is analyzed at 10% RH. The dm/dt is set to 0.002 to achieve equilibrium between the sample and the room environment.
Approximately 250 mg of API was weighed and added into a 4 ml glass vial, and 2.5 ml of ethyl acetate was added. The mixture was stirred overnight under magnetic stirring at 50° C., cooled to room temperature, and then filtered, and the obtained solid was dried in vacuum overnight in a 50° C. oven. The resulting solid was free base crystal form Form B. The free base crystal form Form B was subjected to various characterization.

[3] = Solid stability of crystal forms (80° C., light exposure, 25° C./60% RH, 40° C./75% RH); purity by liquid chromatography and XRPD of the solids
Method: A certain amount of API and malate crystal form VII-A were weighed and added into a liquid phase vial, and a total of 9 parallels were prepared. The 9 parallels were placed separately in 80° C. (open); 25° C., 60% RH (open); 40° C., 75% RH (open); and light stability box closed). The stabilities under conditions of: 80° C. for one day, light exposure for 10 days, as well as 25° C., 60% RH and 40° C., 75% RH for one and two weeks were tested, and the XRPD of the solids were measured.
A certain amount of crystal form B was weighed and added into a liquid phase vial, and a total of 9 parallels were prepared. 9 parallels were placed separately in 80° C.; 25° C., 60% RH, 40° C., 75% RH; and light stability boxe.

[4] = Competitive pulping of API (free base Form A) and Form B in saturated DCM or water solution at 50° C., XRPD
Method: A saturated solution of API (free base Form A) in DCM and water was prepared. Approximately 10 mg of API (free base Form A) and free base crystal form Form B was weighed respectively and added into a 4 ml glass bottle, and 1 mL of the saturated solution was added. […] The resulting solid was subjected to XRPD testing.

[5] = 25° C., 60% RH, 1 week, listed as API
[6] = 25° C., 60% RH, 2 weeks, listed as API
[7] = 40° C., 75% RH, 1 week, listed as API
[8] = 40° C., 75% RH, 2 weeks, listed as API
[9] = Light control, 10 days, listed as API
[10] = Light exposure, 10 days, listed as API

With `CCc1nc2c(N)ncc(-c3ccc(N4CCC(N5CCN(CC)CC5)CC4)c(OC)c3)c2nc1NC1CCOCC1` [Free base Form A, 3-ethyl-8-(4-(4-(4-ethylpiperazin-1-yl)piperidin-1-yl)-3-methoxyphenyl)-N2-(tetrahydro-2H-pyran-4-yl) pyridino [3,4-b]pyrazine-2,5-diamine] as the compound, how does the solubility at 24 h ([1]; pH 3.0 buffer solution, 37 °C, pH 3, aqueous buffer, thermodynamic from solid, medium pH 3.0, 24 h, read-out: Solubility at 37° C. (mg/ml) 24 h) read?
The solubility at 24 h was greater than 10 mg/mL.

What about the Crystal form ([1]; medium FaSSIF) of the same compound?
The Crystal form was “Free base”.

What about the Crystal form ([1]; medium H2O) of the same compound?
The Crystal form was “Free base”.

What about the Crystal form ([1]; medium pH 6.8) of the same compound?
Its Crystal form is “Free base”.

What about the Crystal form ([1]; medium pH 7.4) of the same compound?
Its Crystal form is “Free base”.

And the “moisture absorption weight gain” value [2]?
Its value is 1.05%.

And the “moisture absorption weight gain” value ([2]; listed as API)?
Its value is 11.12%.

What about the hygroscopicity [2] of the same compound?
The hygroscopicity was “slight hygroscopicity”.

What about the “Degradation (%)” value ([3]; 25° C., 60% RH (open), 1 week) of the same compound?
The value was 0.03%.

What about the “Purity (%)” value ([3]; 25° C., 60% RH (open), 1 week) of the same compound?
The value was 95.50%.

What about the Crystal form ([3]; 25° C., 60% RH (open), 1 week, XRPD) of the same compound?
The Crystal form was “Unchanged”.

What about the “Degradation (%)” value ([3]; 25° C., 60% RH (open), 2 weeks) of the same compound?
The value was 0.04%.

And the “Purity (%)” value ([3]; 25° C., 60% RH (open), 2 weeks)?
Its value is 95.49%.

What about the Crystal form ([3]; 25° C., 60% RH (open), 2 weeks, XRPD) of the same compound?
Its Crystal form is “Unchanged”.

And the Crystal form ([3]; 25° C., 60% RH, 1 week)?
The Crystal form was “Unchanged”.

And the Degradation [3, 5]?
The Degradation was 0.03%.

What about the Purity [3, 5] of the same compound?
The Purity was 95.50%.

And the Crystal form ([3]; 25° C., 60% RH, 2 weeks)?
Its Crystal form is “Unchanged”.

And the Degradation [3, 6]?
The Degradation was 0.04%.

What about the Purity [3, 6] of the same compound?
The Purity was 95.49%.

What about the “Degradation (%)” value ([3]; 40° C., 75% RH (open), 1 week) of the same compound?
The value was 0.04%.

And the “Purity (%)” value ([3]; 40° C., 75% RH (open), 1 week)?
The value was 95.49%.

What about the Crystal form ([3]; 40° C., 75% RH (open), 1 week, XRPD) of the same compound?
Its Crystal form is “Unchanged”.

And the “Degradation (%)” value ([3]; 40° C., 75% RH (open), 2 weeks)?
The value was 2.93%.

And the “Purity (%)” value ([3]; 40° C., 75% RH (open), 2 weeks)?
Its value is 92.60%.

What about the Crystal form ([3]; 40° C., 75% RH (open), 2 weeks, XRPD) of the same compound?
The Crystal form was “Unchanged”.

What about the Crystal form ([3]; 40° C., 75% RH, 1 week) of the same compound?
Its Crystal form is “Unchanged”.

What about the Degradation [3, 7] of the same compound?
Its Degradation is 0.04%.

What about the Purity [3, 7] of the same compound?
The Purity was 95.49%.

And the Crystal form ([3]; 40° C., 75% RH, 2 weeks)?
Its Crystal form is “Unchanged”.

And the Degradation [3, 8]?
Its Degradation is 2.93%.

What about the Purity [3, 8] of the same compound?
Its Purity is 92.60%.

What about the “Degradation (%)” value ([3]; 80° C. (open), 1 day) of the same compound?
Its value is 0.14%.

What about the “Purity (%)” value ([3]; 80° C. (open), 1 day) of the same compound?
The value was 95.39%.

And the Crystal form ([3]; 80° C. (open), 1 day, XRPD)?
Its Crystal form is “changed”.

And the Crystal form ([3]; 80° C., 1 day, listed as API)?
Its Crystal form is “changed”.

And the Degradation ([3]; 80° C., 1 day, listed as API)?
The Degradation was 0.14%.

What about the Purity ([3]; 80° C., 1 day, listed as API) of the same compound?
Its Purity is 95.39%.

And the “Degradation (%)” value ([3]; Light contral, 10 days)?
Its value is 0.02%.

And the “Purity (%)” value ([3]; Light contral, 10 days)?
The value was 95.51%.

And the Crystal form ([3]; Light contral, 10 days, XRPD)?
The Crystal form was “Unchanged”.

And the Crystal form ([3]; Light control, 10 days)?
Its Crystal form is “Unchanged”.

What about the Degradation [3, 9] of the same compound?
The Degradation was 0.02%.

What about the Purity [3, 9] of the same compound?
Its Purity is 95.51%.

What about the “Degradation (%)” value ([3]; Light exposure, 10 days) of the same compound?
The value was 7.89%.

What about the “Purity (%)” value ([3]; Light exposure, 10 days) of the same compound?
Its value is 88.14%.

And the Crystal form ([3]; Light exposure, 10 days, XRPD)?
The Crystal form was “changed”.

What about the Crystal form [3, 10] of the same compound?
The Crystal form was “changed”.

And the Degradation [3, 10]?
Its Degradation is 7.89%.

And the Purity [3, 10]?
The Purity was 88.14%.

What about the “Purity (%)” value ([3]; initial) of the same compound?
Its value is 95.53%.

What about the Purity ([3]; initial, listed as API) of the same compound?
Its Purity is 95.53%.

What about the Degradation ([3]; light exposure and 40° C., 75% RH) of the same compound?
The Degradation was “varying degrees of degradation”.

What about the “solid crystal form obtained by competitive pulping” value ([4]; API and Form B together in DCM, 50° C., 3 days, XRPD) of the same compound?
Its value is “tended to approach Form L”.

And the “appearance after competitive pulping” value ([4]; API and Form B together in DCM, after 5 days of beating)?
Its value is “became oily”.

What about the “crystal form obtained by competitive pulping” value ([4]; API and Form B together in water, 50° C., 3 days, XRPD) of the same compound?
Its value is “a mixture of Form B and API”.

And the XRPD results ([4]; competitive pulping of API and Form B, DCM, 50° C., 3 days)?
The XRPD results was “Form K”.
